Measured values reported in patent US11166924B2, “N-methyl-d-aspartate receptor allosteric modulators and methods for their use” (Qingdao Primedicine Pharmaceutical Company, Ltd., priority 2016, dated 2021).

Tests used:
[1] = molecular target: T1, GluN1/GluN2A NMDARs (Rattus norvegicus, UniProt P35439+Q00959); experiment: Whole-cell patch clamp recordings in HEK293 cells transfected with GluN1/GluN2A; assay type: cell-based; conditions: for activation at 100 µM / activation at 50 µM: HEK293, Table 2, read-out: Normalized Potentiation GluN1/GluN2A; for Normalized Potentiation / EC50: Table 1; for Normalized Potentiation: positive modulation of GluN1/GluN2A NMDARs, concentration not given; for EC50: potentiation, read-out: EC50; for activation at 50 µM: 50 μM (footnote *)
T1 construct: expressed in transfected cells; host or cells: HEK293
Protocol: Cells were transfected with a combination of pcDNA3-CMV expression vectors, each of which expressed one of the rat recombinant (GluN2AWT, GluN1WT, GluN2BWT) subunits. The sequences of all plasmids were confirmed by automated DNA sequencing. Human Embryonic Kidney 293 (HEK293 cells) were cultured in Dulbecco's Modified Eagle's Medium (DMEM) (Invitrogen) supplemented with 10% fetal bovine serum (FBS). When HEK293 cells achieved 90% confluence, plasmids of either GluN1 & GluN2A or GluN1 & GluN2B were co-transfected into the cells using Lipofectamine 2000 (Invitrogen, 11668019) according to manufacturer's instructions. HEK293 cells were then maintained in the 37° C. incubator with […] and 5% CO2 for 48 hrs before being used in experiments. The transfection ratios for the NMDAR subunit combinations were all 1:1 (GluN1/GluN2A or GluN1/GluN2B).
Whole cell patch-clamp recordings were performed under voltage-clamp mode using an Axopatch 200B or 1D patch-clamp amplifier (Molecular Devices). Whole-cell currents were recorded at a holding potential of −60 mV unless indicated elsewhere, and signals were filtered at 2 kHz, digitized at 10 kHz (Digidata 1322A). Recording pipettes (3-5 MΩ) were filled with intracellular solution containing (mM): CsCl 140, HEPES 10, Mg-ATP 4, QX-314 5, pH 7.20; osmolarity, 290-295 mOsm. BAPTA (10 mM) was added in the intracellular solution (unless otherwise specified). The coverslips were continuously superfused with extracellular solution containing (mM): NaCl 140, KCl 5.4, HEPES 10, CaCl2 1.3, glucose 20, pH 7.4; osmolarity, 305-315 mOsm. NMDA-induced currents were applied by NMDA through perfusion fast-step (Warner Instruments). With perfusion fast-step system, NMDA application was achieved by using a two-square barrel glass tubing and depending on the age of the cultured neurons, CNQX (10 μM), TTX (0.5 μM) or BIC (10 μM) were added in the extracellular solution to minimize the activation of ionotropic glutamate receptors and voltage-gated sodium channels, respectively. All experiments were performed at room temperature. Recordings from at least six HEK293 cells/neurons were performed for all active compounds. Data were pooled among HEK293 cells or primary neurons and composite dose-response data were fitted by the equation Percentage Response=100×Relative Efficacy/[1+(EC50/Concentration)nH], where EC50 is the concentration of agonist that produces a half-maximal response, relative efficacy is the response at maximally effective concentration relative to the maximal response of glutamate, and nH is the Hill slope.
GluN1/GluN2A NMDAR subtypes are an attractive target for positive allosteric modulation. The present inventors employed in silico computational drug discovery methods to conduct a virtual screen of purchasable lead-like compounds from the ZINC database (Irwin, J., et al. Abstr Pap Am Chem Soc (2005) 230:U1009) and some synthetic compounds to identify potential GluN1/GluN2A-NMDAR modulators. The in silico methods included large-scale docking against the interstice interface of the GluN1/GluN2A heterodimer and consensus scoring to select compounds for empirical testing. Candidate compounds were further screened by using GluN1/GluN2A transiently transfected in human embryonic kidney (HEK293) cells and tested by whole-cell patch clamp recordings.
The inventors used transiently transfected HEK293 cells expressing either GluN1/GluN2A or GluN1/GluN2B NMDARs and tested by whole-cell voltage patch clamp recordings to see whether selected compounds were controlling the subtype selectivity profile of the drugs.
Whole-cell patch clamp recordings were performed to measure glutamate evoked currents with chloride-based pipette solutions at a holding potential of −60 mV.

[2] = molecular target: T2, GluN1/GluN2B NMDARs (Rattus norvegicus, UniProt P35439+Q00960); experiment: Whole-cell patch clamp recordings in HEK293 cells transfected with GluN1/GluN2B; assay type: cell-based; conditions: for activation at 50 µM: 50 μM (footnote *)
T2 construct: expressed in transfected cells; host or cells: HEK293

[3] = HEK293, Table 2, read-out: Normalized Potentiation GluN1/GluN2B

T1 sequence (Q00959 23-1464, other chains not shown): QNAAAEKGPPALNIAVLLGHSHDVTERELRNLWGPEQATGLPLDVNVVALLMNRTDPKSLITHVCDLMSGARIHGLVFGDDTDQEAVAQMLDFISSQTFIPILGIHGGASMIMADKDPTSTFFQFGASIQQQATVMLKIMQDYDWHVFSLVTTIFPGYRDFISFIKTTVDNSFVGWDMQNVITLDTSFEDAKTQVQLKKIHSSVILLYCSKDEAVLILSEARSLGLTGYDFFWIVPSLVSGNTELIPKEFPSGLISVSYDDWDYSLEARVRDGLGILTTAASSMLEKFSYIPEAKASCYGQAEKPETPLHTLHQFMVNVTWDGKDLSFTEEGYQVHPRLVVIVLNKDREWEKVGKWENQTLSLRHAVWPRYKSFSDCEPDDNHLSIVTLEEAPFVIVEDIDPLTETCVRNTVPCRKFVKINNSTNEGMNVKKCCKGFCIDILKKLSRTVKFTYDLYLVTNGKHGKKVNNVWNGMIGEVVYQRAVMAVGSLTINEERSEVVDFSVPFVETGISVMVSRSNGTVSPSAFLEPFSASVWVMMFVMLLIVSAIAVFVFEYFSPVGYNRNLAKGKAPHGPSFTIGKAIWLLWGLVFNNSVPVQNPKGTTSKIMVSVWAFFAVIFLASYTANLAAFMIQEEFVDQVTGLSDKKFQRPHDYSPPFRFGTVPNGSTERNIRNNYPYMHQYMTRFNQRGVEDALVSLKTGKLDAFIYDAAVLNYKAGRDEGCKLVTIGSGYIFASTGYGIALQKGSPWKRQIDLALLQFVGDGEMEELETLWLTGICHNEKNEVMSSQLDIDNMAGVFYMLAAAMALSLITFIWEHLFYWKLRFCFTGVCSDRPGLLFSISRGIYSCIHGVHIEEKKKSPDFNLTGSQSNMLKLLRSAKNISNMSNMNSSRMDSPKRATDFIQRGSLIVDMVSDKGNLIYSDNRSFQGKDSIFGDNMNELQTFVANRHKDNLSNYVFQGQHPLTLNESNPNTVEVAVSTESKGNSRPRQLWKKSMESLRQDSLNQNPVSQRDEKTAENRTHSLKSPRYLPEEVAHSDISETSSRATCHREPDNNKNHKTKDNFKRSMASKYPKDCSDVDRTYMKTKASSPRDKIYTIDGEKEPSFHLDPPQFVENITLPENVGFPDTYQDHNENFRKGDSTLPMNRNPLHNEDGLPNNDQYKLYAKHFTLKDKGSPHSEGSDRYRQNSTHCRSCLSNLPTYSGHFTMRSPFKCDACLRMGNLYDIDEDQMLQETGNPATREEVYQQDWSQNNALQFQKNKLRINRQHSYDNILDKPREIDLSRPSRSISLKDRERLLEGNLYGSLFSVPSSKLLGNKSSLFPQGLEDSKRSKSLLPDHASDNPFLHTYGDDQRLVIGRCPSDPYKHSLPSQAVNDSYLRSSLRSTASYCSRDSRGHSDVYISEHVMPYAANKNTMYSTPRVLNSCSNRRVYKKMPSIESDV
T2 sequence (Q00960 27-1482, other chains not shown): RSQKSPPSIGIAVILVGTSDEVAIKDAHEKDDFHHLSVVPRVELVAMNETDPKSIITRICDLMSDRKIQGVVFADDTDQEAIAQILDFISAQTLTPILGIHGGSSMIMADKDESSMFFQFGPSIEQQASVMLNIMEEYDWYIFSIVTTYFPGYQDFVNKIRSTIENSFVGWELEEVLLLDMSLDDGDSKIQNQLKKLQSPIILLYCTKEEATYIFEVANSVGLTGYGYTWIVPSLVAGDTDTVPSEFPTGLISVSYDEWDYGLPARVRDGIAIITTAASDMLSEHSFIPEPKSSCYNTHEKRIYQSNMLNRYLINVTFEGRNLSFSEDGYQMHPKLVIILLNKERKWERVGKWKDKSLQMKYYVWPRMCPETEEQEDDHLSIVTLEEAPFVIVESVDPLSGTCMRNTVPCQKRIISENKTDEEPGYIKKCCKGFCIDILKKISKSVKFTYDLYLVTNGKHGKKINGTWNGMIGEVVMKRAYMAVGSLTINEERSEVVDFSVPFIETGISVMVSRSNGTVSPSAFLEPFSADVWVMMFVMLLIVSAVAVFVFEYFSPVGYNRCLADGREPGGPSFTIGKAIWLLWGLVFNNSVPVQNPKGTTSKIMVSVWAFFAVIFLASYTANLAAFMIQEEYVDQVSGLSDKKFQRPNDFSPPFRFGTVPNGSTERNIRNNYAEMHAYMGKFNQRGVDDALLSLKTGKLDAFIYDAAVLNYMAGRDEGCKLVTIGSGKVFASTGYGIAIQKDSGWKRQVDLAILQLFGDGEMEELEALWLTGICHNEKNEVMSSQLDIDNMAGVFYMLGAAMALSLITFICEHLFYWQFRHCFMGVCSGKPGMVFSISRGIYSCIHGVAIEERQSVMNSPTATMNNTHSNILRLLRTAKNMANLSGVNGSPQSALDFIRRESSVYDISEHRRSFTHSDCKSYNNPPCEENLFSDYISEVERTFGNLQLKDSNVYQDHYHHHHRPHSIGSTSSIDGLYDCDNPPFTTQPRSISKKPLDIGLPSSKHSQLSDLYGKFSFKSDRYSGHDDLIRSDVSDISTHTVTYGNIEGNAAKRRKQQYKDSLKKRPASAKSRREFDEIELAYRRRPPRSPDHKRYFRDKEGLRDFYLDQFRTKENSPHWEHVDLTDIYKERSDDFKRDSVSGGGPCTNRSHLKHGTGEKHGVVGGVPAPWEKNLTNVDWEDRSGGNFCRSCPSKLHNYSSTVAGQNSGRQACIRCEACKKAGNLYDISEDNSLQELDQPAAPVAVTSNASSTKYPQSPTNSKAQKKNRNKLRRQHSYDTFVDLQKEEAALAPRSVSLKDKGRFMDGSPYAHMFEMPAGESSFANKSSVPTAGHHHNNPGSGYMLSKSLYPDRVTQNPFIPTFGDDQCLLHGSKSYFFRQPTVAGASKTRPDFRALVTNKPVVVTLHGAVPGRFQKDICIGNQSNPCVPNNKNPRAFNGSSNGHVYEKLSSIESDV

`O=C(N/N=C/c1cccc(O)c1O)c1cccc(I)c1` [Npam30, (E)-N′-(2,3-dihydroxybenzylidene)-3-iodobenzohydrazide] was tested. Which activation at 100 µM [1] did it give?
Its activation at 100 µM is 52.7 ± 4.87%.

And the “Normalized Potentiation” value [1]?
The value was 3.99 ± 4.92%.

And the activation at 100 µM [2, 3]?
The activation at 100 µM was -100 ± 2.83%.

For `COc1cc(/C=N/NC(=O)c2ccccc2Br)c(Br)c(Br)c1O` [Npam40, (E)-2-bromo-N′-(2,3-dibromo-4-hydroxy-5-methoxybenzylidene)benzohydrazide], which “Normalized Potentiation” value [1] is on record?
Its value is 2.51 ± 3.79%.

How did the “Normalized Potentiation” value [1] turn out when `COc1cccc(/C=N/NC(=O)c2ccccc2C)c1O` [Npam42, (E)-N′-(2-hydroxy-3-methoxybenzylidene)-2-methylbenzohydrazide] was run?
Its value is 43.04 ± 6.55%.

Which results are given for `CCOc1cc(Cl)c(Cl)c(/C=N/NC(=O)c2ccc(C)cc2Cl)c1O` [Npam44, (E)-2-chloro-N′-(2,3-dichloro-5-ethoxy-6-hydroxybenzylidene)-4-methylbenzohydrazide]?
Normalized Potentiation [1]: 443.25 ± 83.42%; EC50 [1]: 150 nM

`COc1cc(Br)c(Br)c(/C=N/NC(=O)c2ccccc2Cl)c1O` [Npam45, (E)-2-chloro-N′-(2,3-dibromo-6-hydroxy-5-methoxybenzylidene)benzohydrazide] was tested. Which “Normalized Potentiation” value [1] did it give?
The value was 284.50 ± 85.20%.

`CCOc1cc(Br)cc(/C=N/NC(=O)c2ccc(C)cc2Cl)c1O` [Npam46, (E)-N′-(5-bromo-3-ethoxy-2-hydroxybenzylidene)-2-chloro-4-methylbenzohydrazide] was tested. Which “Normalized Potentiation” value [1] did it give?
Its value is 466.57 ± 37.78%.

What about the EC50 [1] of the same compound?
The EC50 was 250 nM.

`COc1cc(Br)cc(/C=N/NC(=O)c2cccc(Br)c2)c1O` [Npam47, (E)-3-bromo-N′-(5-bromo-2-hydroxy-3-methoxybenzylidene)benzohydrazide] was tested. Which “Normalized Potentiation” value [1] did it give?
Its value is 224.79 ± 24.78%.

For `CCOc1cc(Cl)c(Cl)c(/C=N/NC(=O)c2ccc(OC)cc2)c1O` [Npam48, (E)-N′-(2,3-dichloro-5-ethoxy-6-hydroxybenzylidene)-4-methoxybenzohydrazide], which “Normalized Potentiation” value [1] is on record?
The value was 441.05 ± 150.41%.

What about the EC50 [1] of the same compound?
Its EC50 is 100 nM.

Which “Normalized Potentiation” value [1] does the source give for `CCOc1cc(Cl)c(Cl)c(/C=N/NC(=O)c2cc(Cl)ccc2Br)c1O` [Npam49, 2-bromo-5-chloro-N′-[(1E)-(2,3-dichloro-5-ethoxy-6-hydroxyphenyl)methylidene]benzohydrazide] here?
Its value is 530.06 ± 114.00%.

And the EC50 [1]?
The EC50 was 190 nM.

Which results are given for `CCOc1cc(Cl)c(Cl)c(/C=N/NC(=O)c2cccc(Br)c2C)c1O` [Npam50, 3-bromo-N′-[(1E)-(2,3-dichloro-5-ethoxy-6-hydroxyphenyl)methylidene]-2-methylbenzohydrazide]?
Normalized Potentiation [1]: 441.11 ± 36.50%; EC50 [1]: 250 nM

For `CCOc1cc(Cl)c(Cl)c(/C=N/NC(=O)c2cccc(Br)c2C)c1OC` [Npam51, 3-bromo-N′-[(1E)-(2,3-dichloro-5-ethoxy-6-methoxyphenyl)methylidene]-2-methylbenzohydrazide], which “Normalized Potentiation” value [1] is on record?
The value was 33.37 ± 6.39%.

Which “Normalized Potentiation” value [1] does the source give for `CCOc1cc(Cl)c(Cl)c(/C=N/N(C)C(=O)c2ccccc2)c1O` [Npam52, N′-[(1E)-(2,3-dichloro-5-ethoxy-6-hydroxyphenyl)methylidene]-N-methylbenzohydrazide] here?
The value was 175.53 ± 25.9%.

Which “Normalized Potentiation” value [1] does the source give for `CCOc1cc(Cl)c(Cl)c(/C=N/NC(=O)c2ccccc2OC)c1O` [Npam53, (E)-N′-(2,3-dichloro-5-ethoxy-6-hydroxybenzylidene)-2-methoxybenzohydrazide] here?
Its value is 110.23 ± 4.70%.

Which “Normalized Potentiation” value [1] does the source give for `CCOc1cc(Br)cc(/C=N/NC(=O)c2ccccc2Cl)c1O` [Npam54, N′-[(1E)-(5-bromo-3-ethoxy-2-hydroxyphenyl)methylidene]-2-chlorobenzohydrazide] here?
The value was 43.41 ± 13.48%.

`CCOc1cc(Cl)c(Cl)c(/C=N/NC(=O)c2ccccc2)c1O` [Npam55, (E)-N′-(2,3-dichloro-5-ethoxy-6-hydroxybenzylidene)benzohydrazide] was tested. Which “Normalized Potentiation” value [1] did it give?
The value was 32.10 ± 3.02%.

How did the “Normalized Potentiation” value [1] turn out when `CCOc1cc(Cl)c(Cl)c(/C=N/NC(=O)Cc2ccccc2)c1O` [Npam56, N′-[(1E)-(2,3-dichloro-5-ethoxy-6-hydroxyphenyl)methylidene]-2-phenylacetohydrazide] was run?
The value was 21.48 ± 2.89%.

For `CCOc1cc(Cl)c(Cl)c(/C=N/NCc2ccccc2)c1O` [Npam57, 2-[(1E)-(2-benzylhydrazin-1-ylidene)methyl]-3,4-dichloro-6-ethoxyphenol], which “Normalized Potentiation” value [1] is on record?
Its value is 105.85 ± 12.62%.

With `CCOc1cc(Br)cc(/C=N/NC(=O)c2ccccc2Br)c1O` [Npam58, (E)-2-bromo-N′-(5-bromo-3-ethoxy-2-hydroxybenzylidene)benzohydrazide] as the compound, how does the “Selectivity for GluN1/GluN2A versus GluN1/GluN2B NMDARs” value ([1]; FIG. 2, HEK293 cells expressing GluN1/GluN2A and GluN1/GluN2B) read?
The value was “selective for GluN1/GluN2A NMDARs”.

And the “Normalized Potentiation” value [1]?
The value was 163.60 ± 13.94%.

And the EC50 [1]?
The EC50 was 800 nM.

`COc1cc(Br)c(Br)c(/C=N/NC(=O)c2ccccc2)c1O` [Npam59, (E)-N′-(2,3-dibromo-6-hydroxy-5-methoxybenzylidene)benzohydrazide] was tested. Which “Normalized Potentiation” value [1] did it give?
Its value is 441.71 ± 65.24%.

What about the EC50 [1] of the same compound?
Its EC50 is 90 nM.

`O=C(N/N=C/c1cccc(O)c1O)c1cccc([N+](=O)[O-])c1` [Npam64, (E)-N′-(2,3-dihydroxybenzylidene)-3-nitrobenzohydrazide] was tested. Which activation at 100 µM [1] did it give?
The activation at 100 µM was 28.2 ± 2.47%.

And the activation at 100 µM [2, 3]?
The activation at 100 µM was -54.6 ± 5.87%.

With `Cc1cc2ccccc2cc1C(=O)N/N=C/c1cccc(O)c1O` [Npam65, (E)-N′-(2,3-dihydroxybenzylidene)-3-methyl-2-naphthohydrazide] as the compound, how does the activation at 50 µM [1] read?
The activation at 50 µM was 51.8 ± 6.55%.

What about the activation at 50 µM [2, 3] of the same compound?
Its activation at 50 µM is -46.9 ± 8.94%.

`COc1cccc(/C=N/NC(=O)c2ccccc2I)c1O` [Npam66, (E)-N′-(2-hydroxy-3-methoxybenzylidene)-2-iodobenzohydrazide] was tested. Which activation at 100 µM [1] did it give?
Its activation at 100 µM is 45.7 ± 3.87%.

What about the activation at 25 µM ([2]; HEK293, Table 2, 25 μM, read-out: Normalized Potentiation GluN1/GluN2B) of the same compound?
Its activation at 25 µM is -20.9 ± 3.69%.

What does the source list for `O=C(N/N=C/c1cccc(O)c1O)c1ccc(O)cc1` [Npam68, (E)-N′-(2,3-dihydroxybenzylidene)-4-hydroxybenzohydrazide]?
activation at 50 µM [1]: 35.1 ± 4.85%; activation at 50 µM [2, 3]: -56.6 ± 7.45%

How did the activation at 50 µM [1] turn out when `COc1cccc(/C=N/NC(=O)c2ccccc2)c1O` [Npam69, (E)-N′-(2-hydroxy-3-methoxybenzylidene)benzohydrazide] was run?
The activation at 50 µM was 11.1 ± 1.98%.

And the activation at 50 µM [2, 3]?
Its activation at 50 µM is -34 ± 2.47%.

`O=C(N/N=C/c1cccc(O)c1O)c1cc(O)cc(O)c1` [Npam70, (E)-N′-(2,3-dihydroxybenzylidene)-3,5-dihydroxybenzohydrazide] was tested. Which activation at 50 µM [1] did it give?
Its activation at 50 µM is -24.1 ± 2.47%.

What about the activation at 50 µM [2, 3] of the same compound?
The activation at 50 µM was -45.6 ± 3.67%.

How did the activation at 50 µM [1] turn out when `Cc1cccc(C(=O)N/N=C/c2cccc(O)c2O)c1` [Npam71, (E)-N′-(2,3-dihydroxybenzylidene)-3-methylbenzohydrazide] was run?
Its activation at 50 µM is 41.7 ± 6.78%.

And the activation at 50 µM [2, 3]?
The activation at 50 µM was -48.6 ± 4.77%.

`CCOc1cc(Cl)cc(/C=N/NC(=O)c2ccccc2Br)c1O` [Npam80, (E)-2-bromo-N′-(5-chloro-3-ethoxy-2-hydroxybenzylidene)benzohydrazide] was tested. Which “Normalized Potentiation” value [1] did it give?
The value was 213.60 ± 29.34%.

`CCOc1cc(Br)cc(/C=N/NC(=O)c2ccccc2C)c1O` [Npam82, (E)-N′-(5-bromo-3-ethoxy-2-hydroxybenzylidene)-2-methylbenzohydrazide] was tested. Which “Normalized Potentiation” value [1] did it give?
Its value is 196.21 ± 35.93%.

How did the “Block of GluN1/GluN2B NMDAR currents” value [2] turn out when `CC(C(O)c1ccc(O)cc1)N1CCC(Cc2ccccc2)CC1` (stereo not shown) [ifenprodril, reference compound] was run?
Its value is “successfully blocked”.
